Patent publication US7442394B2, “Combined effects of nutrients on proliferation of stem cells” (University of South Florida, priority 2005, dated 2008)
Each block holds one molecule with its values, some of them ahead of it.

What was measured:
[1] = system: CD133+ (progenitor cells) collected from peripheral blood; assay: MTT cell proliferation assay on CD133+ cells; type: cell-based, human; conditions: same conditions as CD34+ cells
Experimental: (§1) Cell cultures and MTT Assay. For cell proliferation analysis, human bone marrow cells, human CD34+cells or CD133 cells (BioWhittaker, Inc.) were cultured in 96 well plates (5×10^4/well) containing 100 μL of complete medium (RPMI 1640 medium supplemented with 5% fetal calf serum). These cells were treated for 72 hours with various extracts at a wide range of doses (8 ng/mL to 500 ng/mL) or molecular compounds (0.3125 μM to 20 μM). Five hours before the end of the treatment, 20 μL of MTT solution (MTT kit, Sigma) was added to each well. These plates were then incubated in a CO2 incubator at 37° C. for 5 hours and the cultured media removed with needle and syringe. 200 μL of DMSO was added to each well with pipetting up and down to dissolve crystals. These plates were put back into the 37° C. incubator for 5 minutes, transferred to plate reader and measured absorbance at 550 nm. Data were represented as relative percentage mean proliferation, defined as O.D. reading number of each treated cells normalized to control cells (in the absence of treatment).
Promotion of CD133+ Cell Proliferation and Synergistic Properties of Extracts and Compounds. Some of the compounds and combinations with the greatest activity on proliferation of the bone marrow derived CD34+ cells were then used to treat CD133+ (progenitor cells) collected from peripheral blood and cultured under the same conditions as above.

[2] = Vitamin D3 blood concentration in humans; type: in vivo; conditions: dose of 50 mcg
Experimental: In one example, Vitamin D3 is used as 2000 IU's, which is equivalent to 50 μg. In humans, daily administration of 4000 IUs (100 mcg) results in a blood concentration of 100 nmol/L. There is no official RDA for vitamin D3 [R. Vieth, D. Fraser, Vitamin D insufficiency: no recommended dietary allowance exists for this nutrient, CMAJ 166 (2002) 1541-1542](4). According to a conservative report of the Food and Nutrition Board [R. Vieth (2004) Why the optimal requirement for Vitamin D3 is probably much higher than what is officially recommended for adults. Journal of Steroid Biochemistry & Molecular Biology 89-90 (2004) 575-579], the safety limit (no adverse effect level, NOAEL) of vitamin D3 intake in humans is 60 mcg (or 2400 IU) per day [Standing Committee on the Scientific Evaluation of Dietary Reference Intakes. Dietary Reference Intakes: Calcium, Phosphorus, Magnesium, Vitamin D, and Fluoride. National Academy Press, 1997]. After applying a margin of safety, the recommended upper limit is 50 mcg (2000 IUs) per day for intake by the general public [I. Munro, Derivation of tolerable upper intake levels of nutrients, Am. J. Clin. Nutr. 74 (2001) 865-867]. Clinical trials show no benefit from oral doses 20 mcg (800 IUs) or less [R. Vieth (2004) Why the optimal requirement for Vitamin D3 is probably much higher than what is officially recommended for adults. […]

[3] = system: Human bone marrow-derived CD34+ cells; assay: MTT cell proliferation assay on CD34+ cells; type: cell-based; conditions: highest doses (BB 500 ng/mL, D3 5 μM, CH 20 μM, Ca 20 μM, GT 500 ng/mL), 72 hours
Experimental: Human CD133+ cells were cultured for 23 days in the presence or absence of green tea (50 μg/ml).
as §1

[4] = daily administration of 4000 IUs (100 mcg); cited from earlier work
[5] = cited from earlier work
human bone marrow cells = assay: MTT cell proliferation assay on human bone marrow cells; type: cell-based; conditions: for proliferative activity on human bone marrow cells in culture (screen): screened individually; for increase in proliferation, percent over control: 20 μM
[6] = Human pK study of carnosine after beef consumption (Park et al. 2005); type: in vivo, humans
Experimental: In one example, carnosine is added to a supplement in a dose of 100 mg. A recent pK study in humans [Park Y J, Volpe S L, Decker, E A (2005) Quantitation of Carnosine in Humans Plasma after Dietary Consumption of Beef. J. Agric. […] With a Mw of 266 and assuming 5 liters of blood in a human, 250 mg carnosine produces a blood conc of […]. Assuming linear pK, 100 mg should produce a human blood concentration of […]. Doses tested ranged from 1-20 μM, effect was still increasing at 20 μM. Thus, a dose as high as 620 may be helpful and still be within normal ranges for human consumption. A preferred effective range is about 10 mg to 100 mg of carnosine based on extrapolation from results obtained.

[7] = cited from earlier work; remark: listed apart in the source
[8] = system: colony forming units (CFU-C's); assay: HALO colony forming assay of bone marrow, spleen and mononuclear cells; type: in vivo, mice; conditions: 6 days of treatment
Experimental: (§2) On day 7 cells were isolated and prepared for flow cytometry. The percentage of CD117/SCA-1 positive cells was analyzed. This represents a hematopoietic stem cells. […] On day 7 cells were isolated and plated in the colony forming assay (see specific methods) for 5 days. ATP was detected by luciferase assay and luminescence was converted to ATP units with use of a standard curve. […] Although a statistically small sample, the effects show a cytokine like effect to reduce progenitors in the bone marrow.
(§3) In vivo studies. […] To date we have treated 3 mice with (Blueberry Extract: 3 mg/kg/day; Carnosine: 10 mg/kg/day; Vitamin D3:1 mg/kg/day; green tea extract: 3 mg/kg/day) or water by gavage, in addition 3 mice have been treated with G-CSF […] i.p. Initial studies were done at 6 days of treatment as this is an optimal time for G-CSF to show mobilization of progenitors into the peripheral blood. Bone marrow, spleen and peripheral blood mononuclear cells were examined by flow cytometry with SCA-1 and CD117, the presence of both markers is indicative of multipotent hematopoietic stem cells. […] The three fractions were also assessed in the HALO™ colony forming assay. […] This effect is consistent with the literature and thus increases our confidence in this version of the CFU-C assay.

[9] = system: CD117/SCA-1 positive cells (hematopoietic stem cells); assay: Flow cytometry of CD117/SCA-1 positive cells after 6 days of treatment; type: in vivo, mice; conditions: day 7
Experimental: as §2, §3

Molecule: C=C1CC[C@H](O)C/C1=C/C=C1\CCC[C@]2(C)[C@@H]([C@H](C)CCCC(C)(C)O)CC[C@@H]12 [25-Hydroxycholecalciferol]
- increase in proliferation, percent over control (FIG. 2C) [1]: 7.6±1.39%
- plasma concentration [2]: 0.05 µM
- increase in proliferation, percent over control (FIG. 2B) [3]: 6.9±2.6%
- blood concentration [4]: 0.1 µM
- recommended upper limit for intake by the general public ([5]; after applying a margin of safety): 50 mcg per day
- safety in clinical trials ([5]; human oral doses of 1000 IUs to 4000 IUs (100 mcg/day)): completely safe
- safety limit (no adverse effect level, NOAEL) of intake ([5]; humans): 60 mcg per day
- proliferation, percent over control (human bone marrow cells; 5 μM, 72 hours): 14.8±3.3%
- proliferative activity on human bone marrow cells in culture (screen) (human bone marrow cells): increase cell proliferation

- human blood concentration ([6]; 100 mg, assuming linear pK): 248 µM
- concentration at 3 h ([6]; human, whole blood, oral, 250 mg carnosine, Mw of 266, assuming 5 liters of blood, read-out: blood conc): 620 µM
Molecule: NCCC(=O)N[C@@H](Cc1cnc[nH]1)C(=O)O [Carnosine]
- increase in proliferation, percent over control (FIG. 2C) [1]: 16.9±3.3%
- increase in proliferation, percent over control (FIG. 2B) [3]: 11.05±2.1%
- increase in proliferation, percent over control (human bone marrow cells; 72 hours): 26.6±6.0%
- proliferative activity on human bone marrow cells in culture (screen) (human bone marrow cells): increase cell proliferation
- plasma conc. ([7]; 250 mg carnosine (two beef patties) ingested): 33000 ng/mL
- time of plasma peak ([7]; 250 mg carnosine ingested): 3 h
- time of return to baseline ([7]; 250 mg carnosine ingested): 5 h

Molecule: O=C(O[C@@H]1Cc2c(O)cc(O)cc2O[C@@H]1c1cc(O)c(O)c(O)c1)c1cc(O)c(O)c(O)c1 [EGCG]
- proliferative activity on human bone marrow cells in culture (screen) (human bone marrow cells): did not show high activity

Molecule: Catechin
- increase in proliferation, percent over control (FIG. 2B) [3]: 24.8±5.0%
- increase in proliferation, percent over control (human bone marrow cells; 72 hours): 34.8±5.2%
- proliferative activity on human bone marrow cells in culture (screen) (human bone marrow cells): increase cell proliferation

Molecule: hGM-CSF: positive control, human granulocyte colony-stimulating factor
- increase in proliferation, percent over control (FIG. 2C) [1]: 21.11±2.9%
- increase in proliferation, percent over control (FIG. 2B) [3]: 48.3±7.4%
- increase in proliferation, percent over control (FIG. 2A) (human bone marrow cells; combination experiment, BB 500 ng/mL, D3 5 μM, CH 20 μM, Ca 20 μM, GT 500 ng/mL, 72 hours): 48.3±7.4%
- proliferation, percent over control (human bone marrow cells; highest dose of 100 ng/ml, 72 hours): 44.5±8.1%

B1: G-CSF: granulocyte-colony-stimulating factor, potent cytokine given i.p. to mice (protein, UniProt P09919 31-207, looked up)
Granulocyte …: TPLGPASSLPQSFLLKCLEQVRKIQGDGAALQEKLVSECATYKLCHPEELVLLGHSLGIPWAPLSSCPSQALQLAGCLSQLHSGLFLYQGLLQALEGISPELGPTLDTLQLDVADFATTIWQQMEELGMAPALQPTQGAMPAFASAFQRRAGGVLVASHLQSFLEVSYRVLRHLAQP
- colony forming units (CFU-C's) ([8]; bone marrow fraction): decrease
- colony forming units (CFU-C's) ([8]; bone marrow fraction, listed as GCSF): reduce
- colony forming units (CFU-C's) ([8]; spleen and MNC fractions): increase
- CD117/SCA-1 positive cells ([9]; BM population): decrease
- CD117/SCA-1 positive cells ([9]; all 3 cell fractions (BM, spleen, MNC)): small increase
- CD117/SCA-1 positive cells ([9]; spleen and MNC populations): trend for an increase
